# In patent US20070049564A1 (Wyeth, priority 2005, published 2007):
# Read-outs that look alike come from different tables or passages of the source.
# Experiments:
# S. pneumoniae+ GC 4465 = experiment: MIC, broth microdilution; conditions: Streptococcus pneumoniae
# c. albicans GC 3066 = experiment: MIC, broth microdilution
# E. faecalis GC 4555 = experiment: MIC, broth microdilution; conditions: Enterococcus faecalis
# S. aureus GC 1131 = experiment: MIC, broth microdilution; conditions: Staphylococcus aureus
# Staph. aureus Smith = experiment: In vivo activity (oral, iv; ED50) against Staph. aureus Smith in mice
# Protocol: Representative examples of compounds of Formula I were tested for the oral efficacy using S. aureus Smith in mice.
# E. faecalis GC 2242 = experiment: MIC, broth microdilution; conditions: Enterococcus faecalis
# E. coli GC 2232 = experiment: MIC, broth microdilution; conditions: Escherichia coli
# E. coli GC 2236 = experiment: MIC, broth microdilution; conditions: Escherichia coli
# E. faecium GC 2243 = experiment: MIC, broth microdilution; conditions: Enterococcus faecium
# E. coli GC 2272 = experiment: MIC, broth microdilution; conditions: Escherichia coli
# S. aureus GC 4536 = experiment: MIC, broth microdilution; conditions: Staphylococcus aureus
# Protocol: (§1) Antimicrobial susceptibility testing. The in vitro activities of the antibiotics are determined by the broth microdilution method as recommended by the National Committee for Clinical Laboratory Standards (NCCLS) (1). Mueller-Hinton II broth (MHBII)(BBL Cockeysville, Md.) is the medium employed in the testing procedures. Microtiter plates containing serial dilutions of each antimicrobial agent are inoculated with each organism to yield the appropriate density (10^5 CFU/ml) in a 100 μl final volume. The plates are incubated for 18-22 hours at 35° C. in ambient air.
# Representative compounds were first incubated in mouse serum for an hour prior to the in vitro testing against a panel of selected gram-positive and gram-negative bacteria strains. All compounds were also pre-incubated in water for an hour prior to testing as control. Representative compounds of Formula I were incubated in human serum prior to MIC determination.
# S. epidermidis GC 4935 = experiment: MIC, broth microdilution; conditions: Staphylococcus epidermidis
# Staph. = experiment: Range of MIC for Staph. strains, including MRSA; conditions: Staphylococcus aureus
# E. coli = experiment: Range of MIC for E. coli strains; conditions: Escherichia coli, 20 h, read-out: Range of MIC, E. coli (Mouse Serum)
# S. pneumoniae* GC 4465 = experiment: MIC, broth microdilution; conditions: Streptococcus pneumoniae
# E. faecalis GC 2267 = experiment: MIC, broth microdilution; conditions: Enterococcus faecalis
# P. aeruginosa GC 2214 = experiment: MIC, broth microdilution; conditions: Pseudomonas aeruginosa
# Protocol: as §1
# Representative compounds were first incubated in mouse serum for an hour prior to the in vitro testing against a panel of selected gram-positive and gram-negative bacteria strains. All compounds were also pre-incubated in water for an hour prior to testing as control.
# E. coli GC 2231 = experiment: MIC, broth microdilution; conditions: Escherichia coli
# S. aureus GC 2216 = experiment: MIC, broth microdilution; conditions: Staphylococcus aureus
# E. faecalis GC 2265 = experiment: MIC, broth microdilution; conditions: Enterococcus faecalis
# [1] = read-out: MINIMAL INHIBITORY CONCENTRATION MIC, Human Serum
# [2] = read-out: MINIMAL INHIBITORY CONCENTRATION MIC, Mouse Serum
# [3] = read-out: MINIMAL INHIBITORY CONCENTRATION MIC, Water
smiles,measurement,setting,value
"CCCCCCC(=O)OCOC(=O)N(CC(=O)Nc1cc(N(C)C)c2c(c1O)C(=O)C1=C(O)[C@]3(O)C(=O)C(C(N)=O)=C(O)[C@@H](N(C)C)[C@@H]3C[C@@H]1C2)C(C)(C)C [Example 48, ({[(2-{[(5aR,6aS,7S,10aS)-9-(aminocarbonyl)-4,7-bis(dimethylamino)-1,8,10a,11-tetrahydroxy-10,12-dioxo-5,5a,6,6a,7,10,10a,12-octahydrotetracen-2-yl]amino}-2-oxoethyl)(tert-butyl)amino]carbonyl}oxy)methyl heptanoate]",MIC,S. pneumoniae+ GC 4465; [1],0.25 µg/mL
same,MIC,S. pneumoniae+ GC 4465; [2],0.25 µg/mL
same,MIC,S. pneumoniae+ GC 4465; [3],0.25 µg/mL
same,MIC,"c. albicans GC 3066; Candida albicans, GC3066, read-out: MINIMAL INHIBITORY CONCENTRATION MIC",> 64 µg/mL
same,MINIMAL INHIBITORY CONCENTRATION MIC,c. albicans GC 3066; Human Serum,>64 UG/ML
same,MINIMAL INHIBITORY CONCENTRATION MIC,c. albicans GC 3066; Mouse Serum,>64 UG/ML
same,MIC,"E. faecalis GC 4555; GC4555, read-out: MINIMAL INHIBITORY CONCENTRATION MIC, Human Serum",4 µg/mL
same,MIC,"E. faecalis GC 4555; GC4555, read-out: MINIMAL INHIBITORY CONCENTRATION MIC, Mouse Serum",0.12 µg/mL
same,MIC,"E. faecalis GC 4555; GC4555, read-out: MINIMAL INHIBITORY CONCENTRATION MIC, Water",2 µg/mL
same,MIC,"S. aureus GC 1131; GC1131, read-out: MINIMAL INHIBITORY CONCENTRATION MIC, Human Serum",0.25 µg/mL
same,MIC,"S. aureus GC 1131; GC1131, read-out: MINIMAL INHIBITORY CONCENTRATION MIC, Mouse Serum",0.25 µg/mL
same,MIC,"S. aureus GC 1131; GC1131, read-out: MINIMAL INHIBITORY CONCENTRATION MIC, Water",0.25 µg/mL
same,ED50,"Staph. aureus Smith; Staphylococcus aureus, in Mus musculus, iv, read-out: ED50 SIV (Staph aureus Smith)",1.1 mg/kg
same,ED50,"Staph. aureus Smith; Staphylococcus aureus, in Mus musculus, po, read-out: ED50 SOD (Staph aureus Smith)",10.1 mg/kg
same,ED50,"Staph. aureus Smith; Staphylococcus aureus, in Mus musculus, po, read-out: ED50 Staph Smith SOD",10.1 mg/kg
same,ED50,"Staph. aureus Smith; iv, read-out: ED50 Staph Smith SIV",1.1 mg/kg
same,MIC,"E. faecalis GC 2242; GC2242, read-out: MINIMAL INHIBITORY CONCENTRATION MIC, Human Serum",1 µg/mL
same,MIC,"E. faecalis GC 2242; GC2242, read-out: MINIMAL INHIBITORY CONCENTRATION MIC, Mouse Serum",0.5 µg/mL
same,MIC,"E. faecalis GC 2242; GC2242, read-out: MINIMAL INHIBITORY CONCENTRATION MIC, Water",1 µg/mL
same,MIC,"E. coli GC 2232; GC2232, read-out: MINIMAL INHIBITORY CONCENTRATION MIC, Human Serum",16 µg/mL
same,MIC,"E. coli GC 2232; GC2232, read-out: MINIMAL INHIBITORY CONCENTRATION MIC, Mouse Serum",0.25 µg/mL
same,MIC,"E. coli GC 2232; GC2232, read-out: MINIMAL INHIBITORY CONCENTRATION MIC, Water",64 µg/mL
same,MIC,"E. coli GC 2236; GC2236, read-out: MINIMAL INHIBITORY CONCENTRATION MIC, Human Serum",16 µg/mL
same,MIC,"E. coli GC 2236; GC2236, read-out: MINIMAL INHIBITORY CONCENTRATION MIC, Mouse Serum",0.25 µg/mL
same,MIC,"E. coli GC 2236; GC2236, read-out: MINIMAL INHIBITORY CONCENTRATION MIC, Water",64 µg/mL
same,MIC,"E. faecium GC 2243; GC2243, read-out: MINIMAL INHIBITORY CONCENTRATION MIC, Human Serum",0.25 µg/mL
same,MIC,"E. faecium GC 2243; GC2243, read-out: MINIMAL INHIBITORY CONCENTRATION MIC, Mouse Serum",0.25 µg/mL
same,MIC,"E. faecium GC 2243; GC2243, read-out: MINIMAL INHIBITORY CONCENTRATION MIC, Water",0.5 µg/mL
same,MIC,"E. coli GC 2272; GC2272, read-out: MINIMAL INHIBITORY CONCENTRATION MIC, Human Serum",8 µg/mL
same,MIC,"E. coli GC 2272; GC2272, read-out: MINIMAL INHIBITORY CONCENTRATION MIC, Mouse Serum",0.25 µg/mL
same,MIC,"E. coli GC 2272; GC2272, read-out: MINIMAL INHIBITORY CONCENTRATION MIC, Water",64 µg/mL
same,MIC,"S. aureus GC 4536; GC4536, read-out: MINIMAL INHIBITORY CONCENTRATION MIC, Human Serum",0.25 µg/mL
same,MIC,"S. aureus GC 4536; GC4536, read-out: MINIMAL INHIBITORY CONCENTRATION MIC, Mouse Serum",0.25 µg/mL
same,MIC,"S. aureus GC 4536; GC4536, read-out: MINIMAL INHIBITORY CONCENTRATION MIC, Water",0.25 µg/mL
same,MIC,"S. epidermidis GC 4935; GC4935, read-out: MINIMAL INHIBITORY CONCENTRATION MIC, Human Serum",0.5 µg/mL
same,MIC,"S. epidermidis GC 4935; GC4935, read-out: MINIMAL INHIBITORY CONCENTRATION MIC, Mouse Serum",0.5 µg/mL
same,MIC,"S. epidermidis GC 4935; GC4935, read-out: MINIMAL INHIBITORY CONCENTRATION MIC, Water",1 µg/mL
same,MIC,"Staph.; MRSA, read-out: Range of MIC, Staph (Mouse Serum)",0.12 to 2 µg/mL
same,MIC,"Staph.; MRSA, read-out: Range of MIC, Staph (Water)",0.12 to 2 µg/mL
same,MIC,"Staph.; read-out: Minimum inhibitory concentration (MIC), Staph (Human Serum)",0.12 to 2 µg/mL
same,MIC,"Staph.; read-out: Minimum inhibitory concentration (MIC), Staph (Water)",0.12 to 2 µg/mL
same,MIC,E. coli,0.25 to 2 µg/mL
same,MIC,S. pneumoniae* GC 4465; [1],0.12 µg/mL
same,MIC,S. pneumoniae* GC 4465; [2],0.12 µg/mL
same,MIC,S. pneumoniae* GC 4465; [3],0.12 µg/mL
same,MIC,"E. faecalis GC 2267; GC2267, read-out: MINIMAL INHIBITORY CONCENTRATION MIC, Human Serum",1 µg/mL
same,MIC,"E. faecalis GC 2267; GC2267, read-out: MINIMAL INHIBITORY CONCENTRATION MIC, Mouse Serum",0.5 µg/mL
same,MIC,"E. faecalis GC 2267; GC2267, read-out: MINIMAL INHIBITORY CONCENTRATION MIC, Water",2 µg/mL
same,MIC,"P. aeruginosa GC 2214; GC2214, read-out: MINIMAL INHIBITORY CONCENTRATION MIC, Human Serum",> 64 µg/mL
same,MIC,"P. aeruginosa GC 2214; GC2214, read-out: MINIMAL INHIBITORY CONCENTRATION MIC, Mouse Serum",16 µg/mL
same,MIC,"P. aeruginosa GC 2214; GC2214, read-out: MINIMAL INHIBITORY CONCENTRATION MIC, Water",> 64 µg/mL
same,MIC,"E. coli GC 2231; GC2231, read-out: MINIMAL INHIBITORY CONCENTRATION MIC, Human Serum",16 µg/mL
same,MIC,"E. coli GC 2231; GC2231, read-out: MINIMAL INHIBITORY CONCENTRATION MIC, Mouse Serum",0.5 µg/mL
same,MIC,"E. coli GC 2231; GC2231, read-out: MINIMAL INHIBITORY CONCENTRATION MIC, Water",64 µg/mL
same,MIC,"S. aureus GC 2216; GC2216, read-out: MINIMAL INHIBITORY CONCENTRATION MIC, Human Serum",0.25 µg/mL
same,MIC,"S. aureus GC 2216; GC2216, read-out: MINIMAL INHIBITORY CONCENTRATION MIC, Mouse Serum",0.25 µg/mL
same,MIC,"S. aureus GC 2216; GC2216, read-out: MINIMAL INHIBITORY CONCENTRATION MIC, Water",0.5 µg/mL
same,MIC,"E. faecalis GC 2265; GC2265, read-out: MINIMAL INHIBITORY CONCENTRATION MIC, Human Serum",1 µg/mL
same,MIC,"E. faecalis GC 2265; GC2265, read-out: MINIMAL INHIBITORY CONCENTRATION MIC, Mouse Serum",0.5 µg/mL
same,MIC,"E. faecalis GC 2265; GC2265, read-out: MINIMAL INHIBITORY CONCENTRATION MIC, Water",2 µg/mL
